{"source": "ChEMBL document CHEMBL2046359", "about": "“Novel tricyclic indeno[2,1-d]pyrimidines with dual antiangiogenic and cytotoxic activities as potent antitumor agents” (Bioorg Med Chem, 2012)", "key": {"[1]": {"tested_on": "TK-10", "assay": "cells", "details": "Homo sapiens"}, "[2]": {"tested_on": "M14", "assay": "cells", "details": "Homo sapiens"}, "[3]": {"tested_on": "SK-MEL-5", "assay": "cells", "details": "Homo sapiens"}, "[4]": {"biological_target": "Dihydroorotate dehydrogenase (quinone), mitochondrial (Homo sapiens, UniProt Q02127)", "sequence (Q02127 whole entry)": "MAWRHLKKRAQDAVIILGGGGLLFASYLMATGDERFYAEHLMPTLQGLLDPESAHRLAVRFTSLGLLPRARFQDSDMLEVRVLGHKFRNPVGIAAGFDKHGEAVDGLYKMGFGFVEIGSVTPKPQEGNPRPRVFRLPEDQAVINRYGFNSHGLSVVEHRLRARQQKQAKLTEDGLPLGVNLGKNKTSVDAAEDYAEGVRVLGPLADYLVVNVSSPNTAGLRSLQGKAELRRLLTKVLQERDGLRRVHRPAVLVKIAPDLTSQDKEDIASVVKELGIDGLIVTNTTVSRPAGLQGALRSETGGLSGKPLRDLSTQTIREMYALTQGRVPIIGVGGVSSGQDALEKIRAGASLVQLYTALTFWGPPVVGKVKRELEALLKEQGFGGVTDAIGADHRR", "assay": "Inhibition of human DHODH"}, "[5]": {"tested_on": "SNB-19", "assay": "cells", "details": "Homo sapiens"}, "[6]": {"tested_on": "U-251", "assay": "cells", "details": "Homo sapiens"}, "[7]": {"tested_on": "NCI-H226", "assay": "cells", "details": "Homo sapiens"}, "[8]": {"tested_on": "MDA-MB-435", "assay": "cells", "details": "Homo sapiens"}, "[9]": {"tested_on": "Malme-3M", "assay": "cells", "details": "Homo sapiens"}, "[10]": {"tested_on": "COLO 205", "assay": "cells", "details": "Homo sapiens"}, "[11]": {"tested_on": "IGROV-1", "assay": "cells", "details": "Homo sapiens"}, "[12]": {"tested_on": "HOP-62", "assay": "cells", "details": "Homo sapiens"}, "[13]": {"tested_on": "SF-539", "assay": "cells", "details": "Homo sapiens"}, "[14]": {"tested_on": "NCI-H460", "assay": "cells", "details": "Homo sapiens"}, "[15]": {"assay": "cells", "details": "Homo sapiens, NCI/ADR-RES"}, "[16]": {"tested_on": "RPMI-8226", "assay": "cells", "details": "Homo sapiens"}, "[17]": {"tested_on": "Mus musculus", "assay": "Toxicity in NCr nu/nu mouse allografted with mouse B16F10 cells at 35 mg/kg, ip administered three times a week for 4 weeks", "format": "organism-based, B16-F10", "design": "dose 35 mg/kg, route intraperitoneal", "details": "in vivo, 672 h"}, "[18]": {"tested_on": "MDA-MB-231", "assay": "cells", "details": "Homo sapiens"}, "[19]": {"tested_on": "A549", "assay": "cells", "details": "Homo sapiens"}, "[20]": {"tested_on": "UO-31", "assay": "cells", "details": "Homo sapiens"}, "[21]": {"tested_on": "MCF7", "assay": "cells", "details": "Homo sapiens"}, "[22]": {"tested_on": "HOP-92", "assay": "cells", "details": "Homo sapiens"}, "[23]": {"tested_on": "SK-MEL-28", "assay": "cells", "details": "Homo sapiens"}, "[24]": {"tested_on": "OVCAR-8", "assay": "cells", "details": "Homo sapiens"}, "[25]": {"tested_on": "SK-OV-3", "assay": "cells", "details": "Homo sapiens"}, "[26]": {"biological_target": "Thymidylate synthase (Homo sapiens, UniProt P04818)", "sequence (P04818 whole entry)": "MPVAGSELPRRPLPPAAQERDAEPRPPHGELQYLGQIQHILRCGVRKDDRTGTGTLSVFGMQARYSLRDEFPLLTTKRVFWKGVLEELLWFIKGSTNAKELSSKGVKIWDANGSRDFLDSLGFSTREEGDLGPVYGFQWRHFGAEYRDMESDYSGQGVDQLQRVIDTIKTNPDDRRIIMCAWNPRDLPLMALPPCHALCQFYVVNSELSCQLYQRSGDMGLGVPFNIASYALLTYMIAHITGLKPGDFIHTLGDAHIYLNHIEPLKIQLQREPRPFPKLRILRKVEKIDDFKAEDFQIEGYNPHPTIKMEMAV", "assay": "Inhibition of human thymidylate synthase"}, "[27]": {"tested_on": "SNB-75", "assay": "cells", "details": "Homo sapiens"}, "[28]": {"tested_on": "A498", "assay": "cells", "details": "Homo sapiens"}, "[29]": {"tested_on": "SW-620", "assay": "cells", "details": "Homo sapiens"}, "[30]": {"biological_target": "T1, Dihydrofolate reductase (Homo sapiens, UniProt P00374)", "T1 sequence (P00374 whole entry)": "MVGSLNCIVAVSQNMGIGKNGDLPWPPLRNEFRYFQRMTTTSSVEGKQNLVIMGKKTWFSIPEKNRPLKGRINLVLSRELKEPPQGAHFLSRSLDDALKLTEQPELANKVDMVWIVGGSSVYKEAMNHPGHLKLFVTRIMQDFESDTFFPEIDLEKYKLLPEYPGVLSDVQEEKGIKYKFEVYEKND"}}}
{"smiles": "Nc1nc2c(c(Nc3ccc(Cl)cc3)n1)-c1ccccc1C2", "values": [{"measurement": "GI50", "setting": "[1]", "result": 2.15, "unit": "µM"}, {"measurement": "GI50", "setting": "[2]", "result": 0.431, "unit": "µM"}, {"measurement": "GI50", "setting": "[3]", "result": 0.513, "unit": "µM"}, {"measurement": "IC50", "setting": "[4]", "result": "> 200", "unit": "µM"}, {"measurement": "GI50", "setting": "[5]", "result": 0.113, "unit": "µM"}, {"measurement": "GI50", "setting": "[6]", "result": 0.184, "unit": "µM"}, {"measurement": "GI50", "setting": "[7]", "result": 2.14, "unit": "µM"}, {"measurement": "GI50", "setting": "[8]", "result": 0.554, "unit": "µM"}, {"measurement": "GI50", "setting": "[9]", "result": "> 10", "unit": "µM"}, {"measurement": "GI50", "setting": "[10]", "result": 0.638, "unit": "µM"}, {"measurement": "GI50", "setting": "[11]", "result": 0.287, "unit": "µM"}, {"measurement": "GI50", "setting": "[12]", "result": 0.654, "unit": "µM"}, {"measurement": "GI50", "setting": "[13]", "result": 0.381, "unit": "µM"}, {"measurement": "GI50", "setting": "[14]", "result": 0.0193, "unit": "µM"}, {"measurement": "GI50", "setting": "[15]", "result": 0.787, "unit": "µM"}, {"measurement": "GI50", "setting": "[16]", "result": 0.489, "unit": "µM"}, {"measurement": "Activity", "setting": "[17]", "result": "Non-toxic"}, {"measurement": "GI50", "setting": "[18]", "result": 0.641, "unit": "µM"}, {"measurement": "GI50", "setting": "[19]", "result": 0.0434, "unit": "µM"}, {"measurement": "GI50", "setting": "[20]", "result": 0.79, "unit": "µM"}, {"measurement": "GI50", "setting": "[21]", "result": 0.0734, "unit": "µM"}, {"measurement": "GI50", "setting": "[22]", "result": 18.1, "unit": "µM"}, {"measurement": "GI50", "setting": "[23]", "result": 1.51, "unit": "µM"}, {"measurement": "GI50", "setting": "[24]", "result": 0.216, "unit": "µM"}, {"measurement": "GI50", "setting": "[25]", "result": 2.09, "unit": "µM"}, {"measurement": "IC50", "setting": "[26]", "result": "> 14", "unit": "µM"}, {"measurement": "GI50", "setting": "[27]", "result": 5.03, "unit": "µM"}, {"measurement": "GI50", "setting": "[28]", "result": 2.49, "unit": "µM"}, {"measurement": "GI50", "setting": "[29]", "result": 0.063, "unit": "µM"}, {"measurement": "IC50", "setting": "[30]", "result": "> 16", "unit": "µM"}]}
